{"source": "patent US20230087118A1", "about": "“IMIDAZO[1,2-a][sequence] DERIVATIVES AND THEIR USE IN THE TREATMENT OF DISEASE” (priority 2019, published 2023)", "note": "Structures can show the parent of a compound that is named as a salt."}
{"biological_target": "T1, IRAK4 (Homo sapiens, UniProt Q9NWZ3)", "T1 sequence (Q9NWZ3 1-460)": "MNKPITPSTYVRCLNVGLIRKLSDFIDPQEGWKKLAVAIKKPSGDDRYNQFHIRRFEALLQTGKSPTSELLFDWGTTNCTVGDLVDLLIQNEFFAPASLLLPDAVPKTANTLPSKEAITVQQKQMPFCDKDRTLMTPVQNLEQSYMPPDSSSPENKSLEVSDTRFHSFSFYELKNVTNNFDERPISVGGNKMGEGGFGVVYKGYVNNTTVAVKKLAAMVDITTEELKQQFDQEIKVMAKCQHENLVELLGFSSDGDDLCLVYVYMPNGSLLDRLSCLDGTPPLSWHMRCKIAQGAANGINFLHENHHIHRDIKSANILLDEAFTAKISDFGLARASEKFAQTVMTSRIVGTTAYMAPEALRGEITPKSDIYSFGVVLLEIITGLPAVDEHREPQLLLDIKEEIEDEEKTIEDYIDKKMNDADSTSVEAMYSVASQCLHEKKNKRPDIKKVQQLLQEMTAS", "assay": "biochemical", "conditions": "not given", "units": {"IC50": "µM"}}
{"molecule": "CC12CC(c3cn4cc(C(=O)Nc5cccn(C(F)F)c5=O)c(OC5CCOC5)cc4n3)(CO1)C2", "note": "(stereo not drawn) [Example 443, N-(1-(difluoromethyl)-2-oxo-1,2-dihydropyridin-3-yl)-2-(1-methyl-2-oxabicyclo[2.1.1]hexan-4-yl)-7-((tetrahydrofuran-3-yl)oxy)imidazo[1,2-a]pyridine-6-carboxamide]", "IC50": 0.0017}
{"molecule": "COc1nc(C(=O)Nc2ccn(C)n2)cn2cc(C3CCOCC3)nc12", "note": "[Example 88]", "IC50": 0.0509}
{"molecule": "CCn1ccc(NC(=O)c2cn3cc(C45CCC(C)(C4)OC5)nc3cc2OC(C)C)n1", "note": "(stereo not drawn) [Example 508, N-(1-ethyl-1H-pyrazol-3-yl)-7-isopropoxy-2-(1-methyl-2-oxabicyclo[2.2.1]heptan-4-yl)imidazo[1,2-a]pyridine-6-carboxamide]", "IC50": 0.0023}
{"molecule": "CC(C)(C)c1cn2cc(C(=O)Nc3cccc(C(F)F)n3)c(OC3CCC3)cc2n1", "note": "[Example 267, 2-(tert-Butyl)-7-cyclobutoxy-N-(6-(difluoromethyl)pyridin-2-yl)imidazo[1,2-a]pyridine-6-carboxamide]", "IC50": 0.002}
{"molecule": "CC(C)(C)c1cn2cc(C(=O)Nc3cccc(C(F)F)n3)c(OC3COC4(CC4)C3)cc2n1", "note": "(stereo not drawn) [Example 268, 7-((4-Oxaspiro[2.4]heptan-6-yl)oxy)-2-(tert-butyl)-N-(6-(difluoromethyl)pyridin-2-yl)imidazo[1,2-a]pyridine-6-carboxamide]", "IC50": 0.0083}
{"molecule": "CC(C)Oc1nc2nc([C@]34CC[C@](C)(C3)OC4)cn2cc1C(=O)Nc1cnn2cccnc12", "note": "(single isomer, unassigned) [Example 613]", "IC50": 0.0005}
{"molecule": "C[C@]12CC[C@](c3cn4cc(C(=O)Nc5cccc(C(F)F)n5)cc(OC(F)F)c4n3)(CO1)C2", "note": "(single isomer, unassigned) [Example 585]", "IC50": 0.0115}
{"molecule": "COc1ncccc1NC(=O)c1cn2cc(C34COC(C)(C3)C4)nc2cc1OC(C)C", "note": "[Example 216]", "IC50": 0.0005}
{"molecule": "COc1cccc(NC(=O)c2cn3cc(C(F)F)nc3cc2OC(C)C)n1", "note": "[Example 100]", "IC50": 0.0178}
{"molecule": "CC(Oc1cc2nc(C34COC(C)(C3)C4)cn2cc1C(=O)Nc1cccc(C(F)F)n1)C(F)(F)F", "note": "(stereo not drawn) [Example 323, N-(6-(difluoromethyl)pyridin-2-yl)-2-(1-methyl-2-oxabicyclo[2.1.1]hexan-4-yl)-7-((1,1,1-trifluoropropan-2-yl)oxy)imidazo[1,2-a]pyridine-6-carboxamide]", "IC50": 0.0007}
{"molecule": "CC(C)Oc1cc2nc(C34COC(C)(C3)C4)cn2cc1C(=O)Nc1cnn2ccc(Cl)nc12", "note": "[Example 264, N-(5-chloropyrazolo[1,5-a]pyrimidin-3-yl)-7-isopropoxy-2-(1-methyl-2-oxabicyclo[2.1.1]hexan-4-yl)imidazo[1,2-a]pyridine-6-carboxamide]", "IC50": 0.0002}
{"molecule": "CCOc1nc(C(=O)Nc2cccnc2OC)cn2cc([C@]34CC[C@](C)(C3)OC4)nc12", "note": "(single isomer, unassigned) [Example 604]", "IC50": 0.0003}
{"molecule": "CC12CC(c3cn4cc(C(=O)Nc5cnc6cccnn56)c(OC5CCCC5)nc4n3)(CO1)C2", "note": "[Example 650, 7-(cyclopentyloxy)-N-(imidazo[1,2-b]pyridazin-3-yl)-2-(1-methyl-2-oxabicyclo[2.1.1]hexan-4-yl)imidazo[1,2-a]pyrimidine-6-carboxamide]", "IC50": 0.0001}
{"molecule": "CC12CC(c3cn4cc(C(=O)Nc5cccn(C(F)F)c5=O)c(OCCF)cc4n3)(CO1)C2", "note": "[Example 438, N-(1-(difluoromethyl)-2-oxo-1,2-dihydropyridin-3-yl)-7-(2-fluoroethoxy)-2-(1-methyl-2-oxabicyclo[2.1.1]hexan-4-yl)imidazo[1,2-a]pyridine-6-carboxamide]", "IC50": 0.0015}
{"molecule": "CC(C)Oc1c(C(=O)Nc2cccc(C(F)F)n2)cn2cc(C34COC(CF)(C3)C4)nc2c1F", "note": "[Example 269, N-(6-(Difluoromethyl)pyridin-2-yl)-8-fluoro-2-(1-(fluoromethyl)-2-oxabicyclo[2.1.1]hexan-4-yl)-7-isopropoxyimidazo[1,2-a]pyridine-6-carboxamide]", "IC50": 0.0012}
{"molecule": "CC(C)Oc1ncccc1NC(=O)c1cn2cc(C34CCC(C)(C3)OC4)nc2cc1OC1CCC1", "note": "(stereo not drawn) [Example 539, 7-Cyclobutoxy-N-(2-isopropoxypyridin-3-yl)-2-(1-methyl-2-oxabicyclo[2.2.1]heptan-4-yl)imidazo[1,2-a]pyridine-6-carboxamide]", "IC50": 0.0229}
{"molecule": "Cn1cc(-c2cccc(NC(=O)c3cn4cc(C56CCC(C)(C5)OC6)nc4cc3OC3CCC3)n2)cn1", "note": "(stereo not drawn) [Example 542, 7-Cyclobutoxy-N-(6-(1-methyl-1H-pyrazol-4-yl)pyridin-2-yl)-2-(1-methyl-2-oxabicyclo[2.2.1]heptan-4-yl)imidazo[1,2-a]pyridine-6-carboxamide]", "IC50": 0.0001}
{"molecule": "CC(C)Oc1nc2nc([C@@]34CC[C@@](C)(C3)OC4)cn2cc1C(=O)Nc1cccc(C(F)F)n1", "note": "(single isomer, unassigned) [Example 576]", "IC50": 0.0002}
{"molecule": "CC12CC(c3cn4cc(C(=O)Nc5cccn(C(F)F)c5=O)c(OC5CCC5)cc4n3)(CO1)C2", "note": "[Example 442, 7-Cyclobutoxy-N-(1-(difluoromethyl)-2-oxo-1,2-dihydropyridin-3-yl)-2-(1-methyl-2-oxabicyclo[2.1.1]hexan-4-yl)imidazo[1,2-a]pyridine-6-carboxamide]", "IC50": 0.0002}
{"molecule": "CC12CCC(c3cn4cc(C(=O)Nc5ccn(CC(F)F)n5)c(OC5CCC5)cc4n3)(CO1)C2", "note": "(stereo not drawn) [Example 543, 7-Cyclobutoxy-N-(1-(2,2-difluoroethyl)-1H-pyrazol-3-yl)-2-(1-methyl-2-oxabicyclo[2.2.1]heptan-4-yl)imidazo[1,2-a]pyridine-6-carboxamide]", "IC50": 0.0044}
{"molecule": "CC(C)Oc1cc2nc(C34CCC(C)(C3)OC4)cn2cc1C(=O)Nc1nc(C(F)F)cs1", "note": "(stereo not drawn) [Example 516, N-(4-(difluoromethyl)thiazol-2-yl)-7-isopropoxy-2-(1-methyl-2-oxabicyclo[2.2.1]heptan-4-yl)imidazo[1,2-a]pyridine-6-carboxamide]", "IC50": 0.0015}
{"molecule": "CCOc1nc(C(=O)Nc2cccnc2OC)cn2cc(C3CCOCC3)nc12", "note": "[Example 209]", "IC50": 0.0057}
{"molecule": "CCOc1nc(C(=O)Nc2ccc(F)cc2OC)cn2cc(C34COC(C)(C3)C4)nc12", "note": "[Example 491, 8-Ethoxy-N-(4-fluoro-2-methoxyphenyl)-2-(1-methyl-2-oxabicyclo[2.1.1]hexan-4-yl)imidazo[1,2-a]pyrazine-6-carboxamide]", "IC50": 0.0023}
{"molecule": "CC(C)Oc1nc2nc(C34COC(C)(C3)C4)cn2cc1C(=O)Nc1cccc(C(F)F)c1", "note": "[Example 386, N-(3-(difluoromethyl)phenyl)-7-isopropoxy-2-(1-methyl-2-oxabicyclo[2.1.1]hexan-4-yl)imidazo[1,2-a]pyrimidine-6-carboxamide]", "IC50": 0.0012}
{"molecule": "COc1cccn2ncc(NC(=O)c3cn4cc(C56COC(C)(C5)C6)nc4c(OC(C)C)n3)c12", "note": "[Example 401, 8-Isopropoxy-N-(4-methoxypyrazolo[1,5-a]pyridin-3-yl)-2-(1-methyl-2-oxabicyclo[2.1.1]hexan-4-yl)imidazo[1,2-a]pyrazine-6-carboxamide]", "IC50": 0.0002}
{"molecule": "CC12CCC(c3cn4cc(C(=O)Nc5cnc6cccnn56)c(OC5CCC5)cc4n3)(CO1)C2", "note": "(stereo not drawn) [Example 649, 7-cyclobutoxy-N-(imidazo[1,2-b]pyridazin-3-yl)-2-(1-methyl-2-oxabicyclo[2.2.1]heptan-4-yl)imidazo[1,2-a]pyridine-6-carboxamide]", "IC50": 0.0002}
{"molecule": "CCOc1nc(C(=O)Nc2cccn(C)c2=O)cn2cc(C34COC(C)(C3)C4)nc12", "note": "[Example 500, 8-Ethoxy-N-(1-methyl-2-oxo-1,2-dihydropyridin-3-yl)-2-(1-methyl-2-oxabicyclo[2.1.1]hexan-4-yl)imidazo[1,2-a]pyrazine-6-carboxamide]", "IC50": 0.0021}
{"molecule": "CC(C)Oc1cc2nc(C34COC(C)(C3)C4)cn2cc1C(=O)Nc1cncc2cccnc12", "note": "[Example 320, 7-Isopropoxy-2-(1-methyl-2-oxabicyclo[2.1.1]hexan-4-yl)-N-(1,6-naphthyridin-8-yl)imidazo[1,2-a]pyridine-6-carboxamide]", "IC50": 0.0004}
{"molecule": "Cc1cnc2c(NC(=O)c3cn4cc(C56CCC(C)(CC5)CO6)nc4nc3OC(C)C)cnn2c1", "note": "[Example 567, 7-Isopropoxy-2-(4-methyl-2-oxabicyclo[2.2.2]octan-1-yl)-N-(6-methylpyrazolo[1,5-a]pyrimidin-3-yl)imidazo[1,2-a]pyrimidine-6-carboxamide]", "IC50": 0.0002}
{"biological_target": "T1, IRAK4", "assay": "biochemical", "conditions": "IRAK4 Biochemical Assay (1 mM ATP, 2 h) IC50 (μM), 1 mM ATP, 2 h, 100 pM IRAK4", "units": {"IC50": "µM"}}
{"molecule": "CC12CC(c3cn4cc(C(=O)Nc5cccn(C(F)F)c5=O)c(OC5CC(C(F)F)C5)cc4n3)(CO1)C2", "note": "(stereo not drawn) [Example 450, N-(1-(difluoromethyl)-2-oxo-1,2-dihydropyridin-3-yl)-7-(3-(difluoromethyl)cyclobutoxy)-2-(1-methyl-2-oxabicyclo[2.1.1]hexan-4-yl)imidazo[1,2-a]pyridine-6-carboxamide]", "IC50": 0.0003}
{"molecule": "O=C(Nc1cccc(C(F)F)n1)c1cn2cc(C3CC3)nc2cc1OCC1CC(F)(F)C1", "note": "[Example 471, 2-Cyclopropyl-7-((3,3-difluorocyclobutyl)methoxy)-N-(6-(difluoromethyl)pyridin-2-yl)imidazo[1,2-a]pyridine-6-carboxamide]", "IC50": 0.0058}
{"molecule": "CC(C)Oc1nc2nc(C34COC(C)(C3)C4)cn2cc1C(=O)Nc1cccc(C#N)c1F", "note": "[Example 353, N-(3-cyano-2-fluorophenyl)-7-isopropoxy-2-(1-methyl-2-oxabicyclo[2.1.1]hexan-4-yl)imidazo[1,2-a]pyrimidine-6-carboxamide trifluoroacetate]", "IC50": 0.0025}
{"molecule": "CCc1cccc(NC(=O)c2cn3cc(C4CC(OC)C4)nc3cc2OC)n1", "note": "(stereo not drawn) [Example 61]", "IC50": 0.0351}
